According to US20250241901A1, “ACTIVATION OF MNRR1 / CHCHD2 AS A THERAPEUTIC TARGET FOR MITOCHONDRIA ASSOCIATED DISORDERS” (Wayne State University, priority 2024, published 2025):

Experiments:
Format in all cases: cell-based, human
MNRR1 = MNRR1 protein levels in MELAS cybrid cells (immunoblot); details: 10 μM; for MNRR1 protein levels: DW7 cells, 24 h
Procedure: FIGS. 6A-6C: FIG. 6A: Above, Chemical structures of nitazoxanide, its metabolites, and similar compounds. Abbreviations: P4, Phenyl-4-aminosalicylic acid; 4ABA, 4-Aminobenzanilide; 4ASA, 4-Amino salicylic acid; BA, Benzanilide; PBO, Phenyl benzoate; PSA, Phenyl salicylic acid; 2AN, 2-Amino 5-nitrothiazole. Below, Equal amounts of lysates of MELAS cells treated with Vehicle (DMSO) or the various compounds (10 μM) for 24 h were separated on an SDS-PAGE gel and probed for MNRR1 levels. Actin was probed as a loading control and numbers below represent an average and SD of 3 biological replicates. FIGS. 6B-6C: MNRR1 transcript levels are shown relative to 18S rRNA (n=4 biological replicates, error bars represent SE). In all figures, * indicates p<0.05, ** indicates p<0.005.
FIGS. 11A-11F: RBPJk and HIF2α compete for binding at the ORE in the MNRR1 promoter to regulate transcription. FIG. 11A: Chromatin immunoprecipitation-qPCR assessing binding of HIF2α to the endogenous MNRR1 promoter in MELAS cybrid cells with 0% (CL9) and 70% heteroplasmy (DW7). FIG. 11B: Dual luciferase reporter assay showing relative activation of MNRR1-luciferase levels in MELAS cybrid cells overexpressing varying proportions of constitutively active RBPJk (RBP-CA) and HIF2α. FIG. 11C: Dual luciferase reporter assay showing relative activation of MNRR1-luciferase levels in MELAS cybrid cells overexpressing the WT (FIG. 9A) or ΔORE (positions 47-53 in SEQ ID NO: 25 in FIG. 9C) promoter with EV (dotted line) or HIF2α. FIG. 11D: Equal amounts of Control or HIFα knockdown (KD) MELAS cybrid cell lysates were separated on an SDS-PAGE gel and probed for HIF2α and MNRR1 levels. Tubulin was probed as loading control. FIG. 11E: Oxygen consumption measured from Control or HIFα knockdown (KD) MELAS cybrid cells. (n=4 biological replicates, error bars represent SE). FIG. 11F: Left, Oxygen consumption measured from MELAS cybrid cells treated with vehicle (DMSO) or PT2385 (10 μM), an inhibitor of HIF2α function, for 24 h. Right, Equal amounts of MELAS cybrid cell lysates treated with vehicle (DMSO) or PT2385 (10 μM) for 24 h, separated on an SDS-PAGE gel, and probed for MNRR1 levels. GAPDH was probed as a loading control.
Immunoblotting: Immunoblotting was performed as described previously. Cell lysates for immunoblotting were prepared using RIPA buffer (Abcam, Waltham, MA) and included a protease and phosphatase inhibitor cocktail (Sigma, St. Louis, MO). […] The clear supernatants were transferred to new tubes and quantified using the Bradford reagent with BSA as standard (BioRad, Hercules. CA). […] For detection after immunoblotting, the SuperSignal™ West Pico PLUS substrate (ThermoFisher, Waltham, MA) was used to generate chemiluminescence signal, which was detected with X-Ray film (RadTech, Vassar, MI).

MNRR1 promoter = assay: Dual luciferase reporter assay with MNRR1 promoter deletions in MELAS cybrid cells; details: 10 μM, 24 h
Procedure: FIGS. 9A-9E: Nitazoxanide acts by reducing HIF2α levels in MELAS cells. FIG. 9A: Schematic representation of deleted regions of the MNRR1 promoter. FIG. 9B: Dual luciferase reporter assay using the MNRR1 promoter deletions in cells treated with vehicle (DMSO), nitazoxanide, or tizoxanide (10 μM) for 24 h (n=4 biological replicates). FIG. 9C: DNA sequence of region of 800-952 bp in the MNRR1 promoter (SEQ ID NO: 25) highlighting binding sites of the transcription factors shown. FIG. 9D: Transcript levels of HIF2α and HIF1α in MELAS cybrid cells harboring different levels of heteroplasmy (0% to 100%). Data from. FIG. 9E: Protein levels of HIF2α and HIF1α in cybrid cells with 0% (CL9) and 70% MELAS heteroplasmy (DW7) In all figures, * indicates p<0.05, ** indicates p<0.005.
Luciferase reporter assay: Luciferase assays were performed with the dual-luciferase reporter assay kit (Promega). Briefly, cells were lysed in 1× passive lysis buffer (Promega) and 25 μL of lysate was used for assay with a tube luminometer using an integration time of 10 s. Transfection efficiency was normalized with the co-transfected pRL-SV40 Renilla luciferase expression plasmid.

PHD3 = PHD3 protein levels in MELAS cybrid cells (immunoblot); details: 10 μM, 24 h
Procedure: FIGS. 14A-14D: PHD3 levels are reduced in MELAS cybrid cells and enhanced by nitazoxanide to increase MNRR1 levels. FIG. 14A: Transcript levels of PHD1, 2, and 3 in MELAS cybrid cells harboring the levels of heteroplasmy shown (data from). FIG. 14B: Protein levels of PHD3 in MELAS cybrid cells with 0% (CL9) and 70% heteroplasmy (DW7). GAPDH was probed as loading control. FIG. 14C: Equal amounts of MELAS cybrid cell lysates, treated with vehicle (DMSO), nitazoxanide, or tizoxanide (10 μM) for 24 h, were separated on an SDS-PAGE gel and probed for PHD1, PHD3, MNRR1, and Tubulin. FIG. 14D: Oxygen consumption measured from MELAS cybrid cells overexpressing PHD1 or PHD3. (n=4 biological replicates, error bars show SE).
Immunoblotting: Immunoblotting was performed as described previously. Cell lysates for immunoblotting were prepared using RIPA buffer (Abcam, Waltham, MA) and included a protease and phosphatase inhibitor cocktail (Sigma, St. Louis, MO). Total protein extracts were obtained by centrifugation at 21,000×g for 30 min at 4° C. The clear supernatants were transferred to new tubes and quantified using the Bradford reagent with BSA as standard (BioRad, Hercules. CA). […] For detection after immunoblotting, the SuperSignal™ West Pico PLUS substrate (ThermoFisher, Waltham, MA) was used to generate chemiluminescence signal, which was detected with X-Ray film (RadTech, Vassar, MI).

| Compound | MNRR1 protein levels (MNRR1) | activation of MNRR1 promoter with deletion of the 801-952 region (MNRR1 promoter) | PHD3 protein level (PHD3) | MNRR1 levels (MNRR1; MELAS cybrid cells, 48 h) |
| --- | --- | --- | --- | --- |
| CC(=O)Oc1ccccc1C(=O)Nc1ncc([N+](=O)[O-])s1 [nitazoxanide, Nitazoxanide] | significant increase | failed to display activation | increasing |  |
| O=C(Nc1ncc([N+](=O)[O-])s1)c1ccccc1O [tizoxanide, Tizoxanide] | significant increase | failed to display activation | most increased | increases MNRR1 levels |
